Values quoted from earlier work as cited in article PMC11215690 (Clinical and Translational Science, 2024).

System: healthy participants
Details: studies of healthy participants

| Compound | most frequently reported TEAEs |
| --- | --- |
| O=C(c1nc2n(n1)[C@H](c1ccccc1)C[C@@H]2F)C1CC1 [GDC‐8264] | headache and skin reaction of contact dermatitis |
| CN1C(=O)[C@@H](NC(=O)c2nnc(Cc3ccccc3)[nH]2)COc2ccccc21 [GSK2982772] | headache and skin reaction of contact dermatitis |
